Data: patent US20250057819A1, “DRUG COMBINATIONS FOR INHIBITING CORONAVIRUS REPLICATION” (priority 2021, published 2025)
Structures can show the parent of a compound that is named as a salt. Where two headings read alike, the source gives them in different places.

Columns and labels:
[1] = Cell viability assay (MTT) in HRT-18 cells; conditions: human, CC50 (μM)
rHCoVs-OC43 = test: organism not typed; format: cell-based
[2] = Cell viability assay (MTT) in Huh7.5 cells; format: cell-based, human; conditions: human, Huh7.5 cells, Huh7.5 (B), read-out: SARS-CoV-2 CC50
Protocol: (§1) Cell viability was monitored by a mitochondrial activity test using methyl-thiazolyl-tetrazolium (MTT, Sigma). After 48 hours of drug treatment, cells were treated with 1 mg/ml of MTT during 3 hours at 37° C. The supernatants were removed and the MTT crystals were dissolved using DMSO and a shaker. The absorbance was read with a Tecan Spark at 570 nm with reference at 650 nm.
(§2) Only the most promising molecules or those studied in synergy were tested in Calu3 cells.

SARS-CoV-2 [3] = test: microbe, parasite or virus in culture; format: cell-based; conditions: for EC50: Severe acute respiratory syndrome coronavirus 2, Huh7.5, 48 h, read-out: SARS-CoV-2 EC50
[4] = Cell viability assay (MTT) in Calu3 cells; format: cell-based, Human; conditions: human, Calu3 cells, Calu3 (C), read-out: SARS-CoV-2 CC50
Protocol: as §1, §2

SARS-CoV-2 [5] = test: Drug tests in SARS-CoV-2 model, Calu3 cells, viral titration by plaque assay in Vero E6; conditions: read-out: SARS-CoV-2 EC50; Calu3 (C), MOI 0.05, 48 h treatment
HRT-18 cells = test: Cell viability assay (MTT) in HRT-18 cells
[6] = drug alone, HRT-18 cells, 48 h treatment, MTT
[7] = drug alone, HRT-18 cells, MOI 0.025, 48 h treatment, decrease of Rluc, read-out: EC50
[8] = drug 2 alone (fast synergy screening table)
[9] = 48 h, drug 2 alone (fast synergy screening table), read-out: IC50
[10] = drug 2 alone (fast synergy screening table), read-out: IC50

| Molecule | CC50 at 48 h [1, 6] | EC50 (rHCoVs-OC43; [7]) | CC50 at 48 h [1, 8] | IC50 (rHCoVs-OC43; [9]) | further results |
| --- | --- | --- | --- | --- | --- |
| CNCC[C@H](Oc1cccc2ccccc12)c1cccs1 [Duloxetine hydrochloride] | > 10 µM | – | – | – | EC50 (rHCoVs-OC43; HRT-18, 48 h): 4800 nM |
| CCCCCCCCCC(=O)OC1(c2ccc(Cl)cc2)CCN(CCCC(=O)c2ccc(F)cc2)CC1 [Haloperidol decanoate] | > 10 µM | > 10000 nM | – | – | – |
| CN(C)CCCN1c2ccccc2CCc2ccc(Cl)cc21 [Clomipramine hydrochloride] | > 10 µM | – | – | – | – |
| CC(=O)Oc1ccccc1C(=O)Nc1ncc([N+](=O)[O-])s1 [Nitazoxanide] | > 10 µM | 1330 nM | > 10 µM | 1330 nM | CC50 at 48 h [2]: > 10000 nM; EC50 (SARS-CoV-2 [3]): 540 nM |
| C[C@@H]1O[C@@H](O[C@H]2C[C@@H](O)[C@]3(CO)[C@H]4[C@H](O)C[C@]5(C)[C@@H](C6=CC(=O)OC6)CC[C@]5(O)[C@@H]4CC[C@]3(O)C2)[C@H](O)[C@H](O)[C@H]1O [Ouabain] | 0.028 µM | 16 nM | 0.028 µM | 16 nM | – |
| C=CC[C@@H]1/C=C(\C)C[C@H](C)C[C@H](OC)[C@H]2O[C@@](O)(C(=O)C(=O)N3CCCC[C@H]3C(=O)O[C@H](/C(C)=C/[C@@H]3CC[C@@H](O)[C@H](OC)C3)[C@H](C)[C@@H](O)CC1=O)[C@H](C)C[C@@H]2OC [Tacrolimus hydrate] | > 10 µM | 3300 nM | – | – | – |
| CN(C)CCCN1c2ccccc2Sc2ccc(Cl)cc21 [chlorpromazine] | > 10 µM | 5100 nM | – | – | – |
| CN(C)CC/C=C1/c2ccccc2Sc2ccc(Cl)cc21 [Chlorprothixene] | > 10 µM | 7500 nM | – | – | – |
| C[C@H]1O[C@@H](O[C@H]2[C@@H](O)C[C@H](O[C@H]3[C@@H](O)C[C@H](O[C@H]4CC[C@@]5(C)[C@H](CC[C@@H]6[C@@H]5CC[C@]5(C)[C@@H](C7=CC(=O)OC7)CC[C@]65O)C4)O[C@@H]3C)O[C@@H]2C)C[C@H](O)[C@@H]1O [Digitoxin] | 0.08 µM | 21 nM | 0.08 µM | 21 nM | – |
| Clc1ccc(C(Cn2ccnc2)OCc2ccsc2Cl)c(Cl)c1 (centres unmarked) [Tioconazole] | > 10 µM | – | – | – | EC50 (rHCoVs-OC43; HRT-18, 48 h): 4100 nM |
| C#C[C@]1(O)CC[C@H]2[C@@H]3CCC4=Cc5oncc5C[C@]4(C)[C@H]3CC[C@@]21C [Danazol] | > 10 µM | 1000 nM | > 10 µM | 1000 nM | CC50 at 48 h [2]: > 10000 nM; EC50 (SARS-CoV-2 [3]): 830 nM; IC50 (rHCoVs-OC43; [10]): 1000 nM |
| CCCCCCCCc1ccc(CCC(N)(CO)CO)cc1 [Fingolimod hydrochloride] | 10 µM | 3900 nM | > 10 µM | 3900 nM | IC50 (rHCoVs-OC43; [10]): 3900 nM |
| CN[C@H]1CC[C@@H](c2ccc(Cl)c(Cl)c2)c2ccccc21 [Sertraline hydrochloride] | > 10 µM | – | > 10 µM | – | – |
| CCCCCCCCCCC[C@@H](C[C@@H]1OC(=O)[C@H]1CCCCCC)OC(=O)[C@H](CC(C)C)NC=O [Orlistat] | > 10 µM | 7300 nM | – | – | – |
| Cc1nc2n(c(=O)c1CCN1CCC(c3noc4cc(F)ccc34)CC1)CCCC2 [Risperidone] | > 10 µM | – | – | – | – |
| Cc1ccc(Sc2ccccc2N2CCNCC2)c(C)c1 [Vortioxetine hydrobromide] | > 10 µM | 2400 nM | – | – | – |
| CCOC(=O)C1=C(COCCN)NC(C)=C(C(=O)OC)C1c1ccccc1Cl (centres unmarked) [Amlodipine benzenesulphonate] | > 10 µM | 5200 nM | > 10 µM | 5200 nM | IC50 (rHCoVs-OC43; [10]): 5200 nM |
| Cc1c(O)cccc1C(=O)N[C@@H](CSc1ccccc1)[C@H](O)CN1C[C@H]2CCCC[C@H]2C[C@H]1C(=O)NC(C)(C)C [Nelfinavir mesylate] | > 10 µM | 2600 nM | > 10 µM | 2600 nM | CC50 at 48 h [2]: > 10000 nM; CC50 at 48 h [4]: > 10000 nM; EC50 (SARS-CoV-2 [3]): 1700 nM; IC50 (rHCoVs-OC43; [10]): 2600 nM; EC50 (SARS-CoV-2 [5]): 110 nM |
| COc1cc2nc(N3CCN(C(=O)C4COc5ccccc5O4)CC3)nc(N)c2cc1OC (centres unmarked) [Doxazosin mesylate] | > 10 µM | 3200 nM | – | – | – |
| CC/C(=C(\c1ccccc1)c1ccc(OCCN(C)C)cc1)c1ccccc1 [Tamoxifen] | > 10 µM | – | – | – | – |
| Cc1cc(/C=C/C#N)cc(C)c1Nc1ccnc(Nc2ccc(C#N)cc2)n1 [Rilpivirine] | 10 µM | > 10000 nM | – | – | – |
| Oc1c(Cl)cc(Cl)c(Cl)c1Cc1c(O)c(Cl)cc(Cl)c1Cl [Hexachlorophene] | – | 390 nM | – | 390 nM | – |

| Molecule | CC50 at 48 h [1, 6] | EC50 (rHCoVs-OC43; [7]) | CC50 at 48 h [1, 8] | IC50 (rHCoVs-OC43; [9]) | further results |
| --- | --- | --- | --- | --- | --- |
| Cn1cc(C2=C(c3cn(C4CCN(Cc5ccccn5)CC4)c4ccccc34)C(=O)NC2=O)c2ccccc21 [Enzastaurin hydrochloride] | > 10 µM | 2800 nM | – | – | – |
| CCN(CC)CCCC(C)Nc1ccnc2cc(Cl)ccc12 (centres unmarked) [Chloroquine] | – | 66 nM | – | 66 nM | – |
| O=C(Nc1ccc(Oc2ccc(Cl)cc2)c(Cl)c1)c1cc(I)cc(I)c1O [Rafoxanide] | > 10 µM | 6900 nM | – | – | – |
| CN1CCN(CCCN2c3ccccc3Sc3ccc(C(F)(F)F)cc32)CC1 [Trifluoperazine dihydrochloride] | > 10 µM | 2900 nM | > 10 µM | 2900 nM | CC50 at 48 h [2]: > 10000 nM; EC50 (SARS-CoV-2 [3]): > 10000 nM; inhibitory effect on viral replication (SARS-CoV-2 [3]; drug alone, SARS-CoV-2, words): did not show any significant inhibition of viral replication; IC50 (rHCoVs-OC43; [10]): 2900 nM |
| C=C1/C(=C\C=C2/CCC[C@]3(C)[C@@H]([C@H](C)CCCC(C)C)CC[C@@H]23)C[C@@H](O)C[C@@H]1O [Alfacalcidol] | > 10 µM | 1700 nM | > 10 µM | 1700 nM | IC50 (rHCoVs-OC43; [10]): 1700 nM |
| COC(=O)C1=C(C)NC(C)=C(C(=O)OCC(C)C)C1c1ccccc1[N+](=O)[O-] (centres unmarked) [Nisoldipine] | > 10 µM | 2350 nM | – | – | – |
| CN(C)[C@@H](CCOc1cccc2ccccc12)c1ccccc1 [Dapoxetine hydrochloride] | > 10 µM | 4700 nM | – | – | – |
| NC(=O)c1ncn([C@@H]2O[C@H](CO)[C@@H](O)[C@H]2O)n1 [Ribavirin] | > 10 µM | 1000 nM | > 10 µM | – | IC50 (rHCoVs-OC43): 1000 nM; IC50 (rHCoVs-OC43; 48 h): 1000 nM |
| CCN(CC)C(=S)SSC(=S)N(CC)CC [Disulfiram] | 0.23 µM | 180 nM | – | – | – |
| OCCN(CCO)c1nc(N2CCCCC2)c2nc(N(CCO)CCO)nc(N3CCCCC3)c2n1 [Dipyridamole] | > 10 µM | 4100 nM | – | – | – |
| CC(C)/N=c1\cc2n(-c3ccc(Cl)cc3)c3ccccc3nc-2cc1Nc1ccc(Cl)cc1 [Clofazimine] | > 10 µM | 1800 nM | > 10 µM | 1800 nM | IC50 (rHCoVs-OC43; [10]): 1800 nM |
| C[C@H]1O[C@@H](O[C@H]2[C@@H](O)C[C@H](O[C@H]3[C@@H](O)C[C@H](O[C@H]4CC[C@@]5(C)[C@H](CC[C@@H]6[C@@H]5C[C@@H](O)[C@]5(C)[C@@H](C7=CC(=O)OC7)CC[C@]65O)C4)O[C@@H]3C)O[C@@H]2C)C[C@H](O)[C@@H]1O [Digoxin] | – | 28 nM | – | – | IC50 (rHCoVs-OC43; 48 h): 28 nM |
| CCCC(=O)O[C@]1(C(=O)CCl)[C@H](C)C[C@@H]2[C@@H]3CCC4=CC(=O)C=C[C@]4(C)[C@]3(F)C(=O)C[C@@]21C [Clobetasone butyrate] | – | 8500 nM | – | – | CC50 (HRT-18 cells; [6]): > 10000 nM |
| COC(=O)C1=C(C)NC(C)=C(C(=O)OCCN2CCN(C(c3ccccc3)c3ccccc3)CC2)C1c1cccc([N+](=O)[O-])c1 (centres unmarked) [Manidipine dihydrochloride] | > 10 µM | 4500 nM | > 10 µM | 4500 nM | IC50 (rHCoVs-OC43; [10]): 4500 nM |
| Cc1ccc(Sc2ccccc2N2CCNCC2)c(C)c1 [Vortioxetine] | – | – | > 10 µM | 2400 nM | IC50 (rHCoVs-OC43; [10]): 2400 nM |
| Monesin sodium sulfate | – | 29 nM | – | – | CC50 (HRT-18 cells; [8]): 900 nM; CC50 (HRT-18 cells; [6]): 900 nM; IC50 (rHCoVs-OC43; [10]): 29 nM |
| Benproperine phosphate | – | 5600 nM | – | – | CC50 (HRT-18 cells; [6]): > 10000 nM |
| CCN(CC)CCOc1ccc(C(=C(Cl)c2ccccc2)c2ccccc2)cc1 [Clomiphene citrate] | > 10 µM | – | > 10 µM | – | – |
| CSc1ccc2c(c1)N(CCC1CCCCN1C)c1ccccc1S2 (centres unmarked) [Thioridazine hydrochloride] | > 10 µM | – | > 10 µM | – | – |
| CC(C)COc1ccc(CNC(=O)N(Cc2ccc(F)cc2)C2CCN(C)CC2)cc1 [Pimanavserin] | – | 6000 nM | – | – | CC50 (HRT-18 cells; [6]): > 10000 nM |
| CCN(CC)Cc1cc(Nc2ccnc3cc(Cl)ccc23)ccc1O [Amodiaquine] | > 10 µM | 1200 nM | > 10 µM | 1200 nM | IC50 (rHCoVs-OC43; [10]): 1200 nM |
| CN(C)CCOc1ccc(/C(=C(/CCCl)c2ccccc2)c2ccccc2)cc1 [Toremifene Citrate] | > 10 µM | 2600 nM | > 10 µM | – | IC50 (rHCoVs-OC43; 48 h): 2600 nM |
